The values below come from PMC3366211, “Leishmanicidal Activity of Nine Novel Flavonoids from Delphinium staphisagria” (The Scientific World Journal, 2012).

Assay [1] has as its system L. infantum promastigote forms. As to the kind of experiment: Promastigote forms assay. The assay is classed as cell-based, Leishmania infantum. The note with it: for SI Promastigote forms: IC50 macrophages/IC50 parasite form; for IC50: Leishmania infantum, 72 h; for times SI exceeds the reference drug SI (all forms): extracellular and intracellular forms; for times SI exceeds the reference drug SI (all forms) / number of times that compound SI exceeds the reference drug SI, Promastigote forms: reference Glucantime; for number of times that compound SI exceeds the reference drug SI, Promastigote forms: in brackets. The method, then: (§1) The compounds obtained were dissolved in the culture medium, at dosages of 100, 50, 25, 10, and 1 μM. The effects of each compound against promastigote forms were tested at 72 hours using a Neubauer haemocytometric chamber. The antileishmanial effect is expressed as the IC50, that is, the concentration required to give 50% inhibition, calculated by linear regression analysis from the Kc values of the concentrations employed.

For assay [2], the system named is L. braziliensis promastigote forms. The assay can be described thus: Promastigote forms assay. The class given is cell-based, Leishmania braziliensis. The note with it: for SI Promastigote forms: IC50 macrophages/IC50 parasite form; for IC50: Leishmania braziliensis, 72 h; for number of times that compound SI exceeds the reference drug SI, Promastigote forms: in brackets, reference Glucantime. The method, then:
as §1

In assay [3] the test system is L. infantum axenic amastigote forms. As to the kind of experiment: Axenic amastigote forms assay. The class given is cell-based, Leishmania infantum. The note with it: for SI Axenic amastigote forms: IC50 macrophages/IC50 parasite form; for IC50: Leishmania infantum, 48 hours per method (72 h); for number of times that compound SI exceeds the reference drug SI, Axenic amastigote forms: in brackets, reference Glucantime.

In assay [4] the test system is L. braziliensis axenic amastigote forms. The assay can be described thus: Axenic amastigote forms assay. The class given is cell-based, Leishmania braziliensis. The following applies: for SI Axenic amastigote forms: IC50 macrophages/IC50 parasite form; for IC50: Leishmania braziliensis, 48 hours per method (72 h); for number of times that compound SI exceeds the reference drug SI, Axenic amastigote forms: in brackets, reference Glucantime.

Assay [5] deals with L. infantum intracellular amastigote forms. The assay can be described thus: Intracellular amastigote forms assay in J774.2 macrophages. The class given is cell-based, Leishmania infantum. The following applies: for SI Intracellular amastigote forms / number of times that compound SI exceeds the reference drug SI, Intracellular amastigote forms: L. infantum; for SI Intracellular amastigote forms: IC50 macrophages/IC50 parasite form; for number of times that compound SI exceeds the reference drug SI, Intracellular amastigote forms: in brackets, reference Glucantime; for IC50: Leishmania infantum, L. infantum in J774.2 macrophages, 72 h.

In assay [6] the test system is L. braziliensis intracellular amastigote forms. Described as above. The class given is cell-based, Leishmania braziliensis. The following applies: for SI Intracellular amastigote forms / number of times that compound SI exceeds the reference drug SI, Intracellular amastigote forms: L. braziliensis; for SI Intracellular amastigote forms: IC50 macrophages/IC50 parasite form; for number of times that compound SI exceeds the reference drug SI, Intracellular amastigote forms: in brackets, reference Glucantime; for IC50: Leishmania braziliensis, L. braziliensis in J774.2 macrophages, 72 h.

A further assay deals with J774.2 macrophages. The assay can be described thus: Cytotoxicity test for macrophages (flow cytometry). The class given is cell-based, BALB/c rat. The note with it: Mus musculus, J774.2, 72 h, J774.2 macrophages after 72 h of culture; read-out: Macrophage toxicity IC50. (A flow cytometer gives signals particle by particle.)
Assay [7] concerns epimastigote forms of Trypanosoma cruzi. On the set-up: method as in PMID 21466157. The following applies: cited from earlier work.

Structures are written as SMILES.

For the compound `CC(=O)O[C@H]1[C@H](Oc2c(-c3ccc(O)cc3)oc3cc(O)cc(O)c3c2=O)O[C@H](CO)[C@@H](O)[C@@H]1O` [Compound 2], in assay [1], the “SI Promastigote forms” value came out at 7.8; half-maximal inhibition (IC50) was put at 34.1 ± 1.6 µM; the “times SI exceeds the reference drug SI (all forms)” value is < 50 times; the “number of times that compound SI exceeds the reference drug SI, Promastigote forms” value (from here on “number … Promastigote forms”) came out at 10. For the same compound, in assay [2], the “SI Promastigote forms” value is given as 10.6; the IC50 came to 25.1 ± 2.5 µM; the “number … Promastigote forms” value came out at 18. For the same compound, in assay [3], the “SI Axenic amastigote forms” value came to 8.2; half-maximal inhibition (IC50) was put at 32.7 ± 5 µM; the “number of times that compound SI exceeds the reference drug SI, Axenic amastigote forms” value (from here on “number … Axenic amastigote forms”) worked out at 14. Further, in assay [4], the “SI Axenic amastigote forms” value is reported as 9.6; 27.9 ± 2.7 µM corresponded to half-maximal inhibition (IC50); the “number … Axenic amastigote forms” value was 19. In assay [5], the “SI Intracellular amastigote forms” value is given as 6.3; the “number of times that compound SI exceeds the reference drug SI, Intracellular amastigote forms” value (shortened to “number … Intracellular amastigote forms”) stood at 13; half-maximal inhibition (IC50) required 42.3 ± 3.9 µM. For the same compound, in assay [6], the “SI Intracellular amastigote forms” value amounted to 8.8; the “number … Intracellular amastigote forms” value came to 18; the IC50 was 30.2 ± 3.8 µM. For the same compound, the IC50 in the assay with J774.2 macrophages was 267 ± 11 µM. In assay [7], the “IC50 compared with benznidazole” value is listed as “significantly lower IC50 values compared with benznidazole”.
Turning to `CC(=O)OC[C@H]1O[C@@H](Oc2c(-c3ccc(OC(C)=O)cc3)oc3cc(OC(C)=O)cc(OC(C)=O)c3c2=O)[C@H](OC(C)=O)[C@@H](OC(C)=O)[C@@H]1OC(C)=O` [Compound 3], in assay [1], the “SI Promastigote forms” value was determined as 8.7; the half-inhibitory concentration (IC50) is 40.4 ± 3.4 µM; the “times SI exceeds the reference drug SI (all forms)” value is listed as < 50 times; the “number … Promastigote forms” value is on record as 11. Further, in assay [2], the “SI Promastigote forms” value was 12.3; the IC50 was found to be 28.4 ± 3 µM; the “number … Promastigote forms” value amounted to 21. For the same compound, in assay [3], the “SI Axenic amastigote forms” value is 12.0; half-maximal inhibition (IC50) required 29.2 ± 3.1 µM; the “number … Axenic amastigote forms” value was determined as 20. For the same compound, in assay [4], the “SI Axenic amastigote forms” value came out at 10.7; 32.9 ± 3 µM corresponded to half-maximal inhibition (IC50); the “number … Axenic amastigote forms” value is recorded as 21. In addition, in assay [5], the “SI Intracellular amastigote forms” value is given as 9.2; the “number … Intracellular amastigote forms” value turned out to be 18; the IC50 turned out to be 38.1 ± 1.6 µM. Also, in assay [6], the “SI Intracellular amastigote forms” value turned out to be 8.4; the “number … Intracellular amastigote forms” value came to 17; the 50% inhibitory concentration (IC50) is 41.9 ± 4 µM. For the same compound, the half-inhibitory concentration (IC50) with J774.2 macrophages is 351 ± 26.8 µM. Moreover, the “IC50 compared with benznidazole” value in assay [7] is recorded as “significantly lower IC50 values compared with benznidazole”.

The term IC50 denotes the midpoint of a concentration-inhibition curve.
